SMILES strings stand for the structures. Bounds are passed on as bounds.

The source of these data is patent publication US12577206B2 (BRISTOL-MYERS SQUIBB COMPANY, priority 2020, dated 2026).

The target in assay [1] is T1, human FPR1 (Homo sapiens, UniProt P21462).
T1 sequence (P21462 1-350): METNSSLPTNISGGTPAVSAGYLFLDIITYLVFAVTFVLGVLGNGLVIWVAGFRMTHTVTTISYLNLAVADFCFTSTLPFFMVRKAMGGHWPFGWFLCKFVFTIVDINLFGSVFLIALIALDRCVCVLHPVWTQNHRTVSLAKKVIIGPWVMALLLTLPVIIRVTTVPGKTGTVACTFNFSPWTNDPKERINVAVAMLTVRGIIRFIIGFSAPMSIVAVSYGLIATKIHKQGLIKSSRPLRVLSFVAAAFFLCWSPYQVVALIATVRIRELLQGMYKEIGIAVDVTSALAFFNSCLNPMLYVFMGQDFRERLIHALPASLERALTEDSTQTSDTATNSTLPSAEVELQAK
The assay is described as follows: FPR1 cyclic adenosine monophosphate (cAMP) assay. It counts as cell-based. The settings on record: CHO cells overexpressing human FPR1; forskolin 10 μM; inhibition of cAMP production; HTRF; read-out: hFPR1 cAMP2 EC50. The method, boiled down:
(§1)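 CHO cells overexpressing human FPR1 (4,000/well) or FPR2 (2,000/well) were incubated 30 min at room temperature with compound (0.020 nM to 100 μM, 1% DMSO), IBMX 200 μM, and forskolin at 10 μM (FPR1) or 5 μM (FPR2), all final. HTRF cAMP read-out; inhibition fitted by 4-parameter logistic equation.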
On the technique in general: Changes in cAMP serve as a functional read-out for many G protein-coupled receptors.

The target of assay [2] is T2, human FPR2 (Homo sapiens, UniProt P25090).
T2 sequence (P25090 1-351): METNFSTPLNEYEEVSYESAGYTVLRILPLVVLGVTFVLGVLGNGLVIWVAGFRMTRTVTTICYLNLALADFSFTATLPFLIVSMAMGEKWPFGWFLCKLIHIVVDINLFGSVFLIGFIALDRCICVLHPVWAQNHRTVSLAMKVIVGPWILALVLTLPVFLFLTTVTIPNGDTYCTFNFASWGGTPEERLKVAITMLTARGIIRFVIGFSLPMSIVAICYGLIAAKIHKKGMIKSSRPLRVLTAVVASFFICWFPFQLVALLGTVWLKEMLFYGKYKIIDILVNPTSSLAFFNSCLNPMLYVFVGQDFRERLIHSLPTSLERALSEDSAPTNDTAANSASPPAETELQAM
The assay is described as follows: FPR2 cyclic adenosine monophosphate (cAMP) assay. The format is cell-based. The following applies: CHO cells overexpressing human FPR2; forskolin 5 μM; inhibition of cAMP production; HTRF; read-out: hFPR2 cAMP2 EC50. The method, boiled down: as §1

With `COc1cc(F)c(-c2c(NC(=O)c3ccc(OC(F)F)cc3)c(=O)n(-c3ncccc3N3CC(C)(O)C3)n2C)c(F)c1` [Example 211, N-[5-(2,6-difluoro-4-methoxyphenyl)-2-[3-(3-hydroxy-3-methylazetidin-1-yl)pyridin-2-yl]-1-methyl-3-oxo-2,3-dihydro-1H-pyrazol-4-yl]-4-(difluoromethoxy)benzamide], the EC50 (as a rule, the concentration needed to bring the measured effect to its halfway point) in assay [1] is more than 10 µM; in assay [2], 0.012 µM.
Turning to `COCCN1CCN(c2cccc(-n3c(=O)c(NC(=O)c4ccc(OC(F)F)cc4)c(-c4c(F)cc(OC)cc4F)n3C)n2)CC1` [Example 212, N-[5-(2,6-difluoro-4-methoxyphenyl)-2-{6-[4-(2-methoxyethyl)piperazin-1-yl]pyridin-2-yl}-1-methyl-3-oxo-2,3-dihydro-1H-pyrazol-4-yl]-4-(difluoromethoxy)benzamide], the concentration for a half-maximal effect (EC50) in assay [1] was more than 10 µM; in assay [2] it was 0.009 µM.
In the case of `COc1cc(F)c(-c2c(NC(=O)c3ccc(OC(F)F)cc3)c(=O)n(-c3cccc(N4CCN(S(C)(=O)=O)CC4)n3)n2C)c(F)c1` [Example 213, N-[5-(2,6-difluoro-4-methoxyphenyl)-2-[6-(4-methanesulfonylpiperazin-1-yl)pyridin-2-yl]-1-methyl-3-oxo-2,3-dihydro-1H-pyrazol-4-yl]-4-(difluoromethoxy)benzamide], the EC50 in assay [1] was more than 10 µM; in assay [2], 0.016 µM.
`COc1cc(F)c(-c2c(NC(=O)c3ccc(OC(F)F)cc3)c(=O)n(-c3nc(N4CCNC(=O)C4)ccc3C(F)(F)F)n2C)c(F)c1` [Example 214, N-[5-(2,6-difluoro-4-methoxyphenyl)-1-methyl-3-oxo-2-[6-(3-oxopiperazin-1-yl)-3-(trifluoromethyl)pyridin-2-yl]-2,3-dihydro-1H-pyrazol-4-yl]-4-(difluoromethoxy)benzamide]: the EC50 in assay [1] amounted to 0.15 µM; in assay [2] it was 0.004 µM.
On the same counts, the results for `CNc1ccc(Cl)nc1-n1c(=O)c(NC(=O)c2ccc(OC(F)F)cc2)c(-c2c(F)cc(OC)cc2F)n1C` [Example 215, N-{2-[6-chloro-3-(methylamino)pyridin-2-yl]-5-(2,6-difluoro-4-methoxyphenyl)-1-methyl-3-oxo-2,3-dihydro-1H-pyrazol-4-yl}-4-(difluoromethoxy)benzamide] are more than 10 µM and 0.005 µM.
As to `COc1cc(F)c(-c2c(NC(=O)c3ccc(OC(F)F)cc3)c(=O)n(-c3nc(N4CCC[C@H]4C(N)=O)ccc3C(F)(F)F)n2C)c(F)c1` [Example 216, (2S)-1-{6-[3-(2,6-difluoro-4-methoxyphenyl)-4-[4-(difluoromethoxy)benzamido]-2-methyl-5-oxo-2,5-dihydro-1H-pyrazol-1-yl]-5-(trifluoromethyl)pyridin-2-yl}pyrrolidine-2-carboxamide], the results for the EC50 in assay [1] and in assay [2] were more than 10 µM and 0.006 µM, respectively.
Take `COc1cc(F)c(-c2c(NC(=O)c3ccc(OC(F)F)cc3)c(=O)n(-c3nc(Cl)ccc3N3CCN(C)CC3)n2C)c(F)c1` [Example 217, N-{2-[6-chloro-3-(4-methylpiperazin-1-yl)pyridin-2-yl]-5-(2,6-difluoro-4-methoxyphenyl)-1-methyl-3-oxo-2,3-dihydro-1H-pyrazol-4-yl}-4-(difluoromethoxy)benzamide]: the EC50 is more than 10 µM in assay [1] and 0.006 µM in assay [2].
Taken in the same sequence, the figures for `COc1cc(F)c(-c2c(NC(=O)c3ccc(OC(F)F)cc3)c(=O)n(-c3cccc(N4CC(C)(C)C4)n3)n2C)c(F)c1` [Example 218, N-[5-(2,6-difluoro-4-methoxyphenyl)-2-[6-(3,3-dimethylazetidin-1-yl)pyridin-2-yl]-1-methyl-3-oxo-2,3-dihydro-1H-pyrazol-4-yl]-4-(difluoromethoxy)benzamide] were 1.5 µM and 0.021 µM.
Regarding `COc1cc(F)c(-c2c(NC(=O)c3ccc(OC(F)F)cc3)c(=O)n(-c3nc(N4CCN(C)CC4)ccc3F)n2C)c(F)c1` [Example 219, N-[5-(2,6-difluoro-4-methoxyphenyl)-2-[3-fluoro-6-(4-methylpiperazin-1-yl)pyridin-2-yl]-1-methyl-3-oxo-2,3-dihydro-1H-pyrazol-4-yl]-4-(difluoromethoxy)benzamide], the results for the EC50 in assay [1] and in assay [2] were 3.2 µM and 0.01 µM, respectively.
In the case of `COc1cc(F)c(-c2c(NC(=O)c3ccc(OC(F)F)cc3)c(=O)n(-c3nc(N4CCN(C)C(=O)C4)ccc3C(F)(F)F)n2C)c(F)c1` [Example 220, N-[5-(2,6-difluoro-4-methoxyphenyl)-1-methyl-2-[6-(4-methyl-3-oxopiperazin-1-yl)-3-(trifluoromethyl)pyridin-2-yl]-3-oxo-2,3-dihydro-1H-pyrazol-4-yl]-4-(difluoromethoxy)benzamide], the EC50 in assay [1] worked out at 0.56 µM; in assay [2], 0.002 µM.
`COc1ccc(-c2c(NC(=O)c3ccc(OC(F)F)cc3)c(=O)n(-c3ncccc3C(F)(F)F)n2C)cc1Cl` [Example 221, N-(5-(3-chloro-4-methoxyphenyl)-1-methyl-3-oxo-2-(3-(trifluoromethyl)pyridin-2-yl)-2,3-dihydro-1H-pyrazol-4-yl)-4-(difluoromethoxy)benzamide]: the results for the EC50 in assay [1] and in assay [2] were more than 5 µM and 0.141 µM, respectively.
Take `COc1cc(F)c(-c2c(NC(=O)c3ccc(OC(F)F)cc3)c(=O)n(-c3nc(Cl)ccc3C(F)(F)F)n2C)c(F)c1` [Example 222, N-{2-[6-chloro-3-(trifluoromethyl)pyridin-2-yl]-5-(2,6-difluoro-4-methoxyphenyl)-1-methyl-3-oxo-2,3-dihydro-1H-pyrazol-4-yl}-4-(difluoromethoxy)benzamide]: the EC50 in assay [1] was more than 10 µM; in assay [2], 0.005 µM.
Taken in the same sequence, the figures for `Cn1ncc2cc(-c3c(NC(=O)c4ccc(OC(F)F)cc4)c(=O)n(-c4ncccc4C(F)(F)F)n3C)ccc21` [Example 223, 4-(difluoromethoxy)-N-(1-methyl-5-(1-methyl-1H-indazol-5-yl)-3-oxo-2-(3-(trifluoromethyl)pyridin-2-yl)-2,3-dihydro-1H-pyrazol-4-yl)benzamide] were more than 5 µM and 0.166 µM.
For the compound `COc1cc(F)c(-c2c(NC(=O)c3ccc(OC(F)F)cc3)c(=O)n(-c3nccc(N4CCN(C)CC4)c3C(F)(F)F)n2C)c(F)c1` [Example 224, N-[5-(2,6-difluoro-4-methoxyphenyl)-1-methyl-2-[4-(4-methylpiperazin-1-yl)-3-(trifluoromethyl)pyridin-2-yl]-3-oxo-2,3-dihydro-1H-pyrazol-4-yl]-4-(difluoromethoxy)benzamide], the EC50 in assay [1] was more than 5 µM; in assay [2] it was 0.015 µM.
For `COc1cc(F)c(-c2c(NC(=O)c3ccc(OC(F)F)cc3)c(=O)n(-c3nc(NCCO)ccc3C(F)(F)F)n2C)c(F)c1` [Example 225, N-[5-(2,6-difluoro-4-methoxyphenyl)-2-{6-[(2-hydroxyethyl)amino]-3-(trifluoromethyl)pyridin-2-yl}-1-methyl-3-oxo-2,3-dihydro-1H-pyrazol-4-yl]-4-(difluoromethoxy)benzamide], the EC50 in assay [1] was more than 10 µM; in assay [2], 0.003 µM.
As for `COc1cc(F)c(-c2c(NC(=O)c3ccc(OC(F)F)cc3)c(=O)n(-c3nc(NCC(N)=O)ccc3C(F)(F)F)n2C)c(F)c1` [Example 226, N-(2-{6-[(carbamoylmethyl)amino]-3-(trifluoromethyl)pyridin-2-yl}-5-(2,6-difluoro-4-methoxyphenyl)-1-methyl-3-oxo-2,3-dihydro-1H-pyrazol-4-yl)-4-(difluoromethoxy)benzamide], the EC50 in assay [1] was more than 10 µM; in assay [2], 0.013 µM.
With `CNc1ccc(C(F)(F)F)c(-n2c(=O)c(NC(=O)c3ccc(OC(F)F)cc3)c(-c3c(F)cc(OC)cc3F)n2C)n1` [Example 227, N-[5-(2,6-difluoro-4-methoxyphenyl)-1-methyl-2-[6-(methylamino)-3-(trifluoromethyl)pyridin-2-yl]-3-oxo-2,3-dihydro-1H-pyrazol-4-yl]-4-(difluoromethoxy)benzamide], the EC50 in assay [1] was more than 5 µM; in assay [2] it was 0.003 µM.
`COc1cc(F)c(-c2c(NC(=O)c3ccc(OC(F)F)cc3)c(=O)n(-c3nc(Nc4cn(C)nc4C)ccc3C(F)(F)F)n2C)c(F)c1` [Example 228, N-[5-(2,6-difluoro-4-methoxyphenyl)-2-{6-[(1,3-dimethyl-1H-pyrazol-4-yl)amino]-3-(trifluoromethyl)pyridin-2-yl}-1-methyl-3-oxo-2,3-dihydro-1H-pyrazol-4-yl]-4-(difluoromethoxy)benzamide]: the concentration giving a half-maximal response (EC50) in assay [1] is more than 5 µM; in assay [2] it was 0.001 µM.
